According to patent US8080529B2, “Macrolides with anti-inflammatory activity” (Glaxo Group Limited, priority 2005, dated 2011):
Like-named read-outs stand apart in the source and are kept apart here.

How the values were obtained:
[1] = tested on: granulocytes; type: in vitro ADME; conditions: human, 180 min, 10 μM
Procedure: (§1) Granulocytes were obtained from heparinized whole blood using density gradiant centrifugation. Erythrocytes were sedimented on 3% dextran T-500 (Amersham Pharmacia Biotech AB, Uppsala, Sweden). Leukocytes were centrifuged on Ficoll (Amersham Pharmacia Biotech AB, Uppsala, Sweden) for 35 min at 600 g at 20° C. The pellet of granulocytes was cleared from remaining erythrocytes by a brief hypotonic lysis.
7.5×10^6 granulocytes, isolated as described above, were suspended in 3 mL of RPMI 1640 (Institute of Immunology, Croatia) containing 10 μM of tested macrolide. Samples were incubated at 37° C. for 180 min. Following incubation, the samples were centrifuged through the layer of Poly(dimethylsiloxane-co-diphenylsiloxane), dihydroxy terminated-silicone oil (Aldrich Chemical Company, Milwaukee, USA). The pellet was resuspended in 0.5% Triton X-100 (Sigma, St. Louis, USA) in deionized water (MilliQ, Millipore Corporation, Bedford, USA). The suspension was sonicated, proteins were precipitated with acetonitrile, and the concentration of macrolide in the supernatants was determined by liquid chromatography-mass spectrometry (LC-MS).
Intracellular concentrations of the test compounds were calculated from the mean cell number recovered after centrifuging through silicone oil. According to the literature, about 1 million neutrophils is considered to have a volume of 0.24 μL (Vazifeh et al., Antimicrob Agents Chemo. 1997; 41: 2099-2107). To estimate the extent of macrolide accumulation, the intracellular to extracellular concentration ratio (I/E) was calculated, where E (due to a large volume of incubation medium) was taken as constant (10 μM). Results are expressed relative to azithromycin according to the following equation: % of azithromycin uptake =(I/E of a substance/I/E of azithromycin)×100. I/E values obtained for azithromycin were 164±10.

[2] = tested on: TNF-α; experiment: Lung neutrophilia induced by bacterial lipopolysaccharide in male BALB/cJ mice: TNF-α in BALF; type: in vivo; conditions: 5 mg i.p.; 24 hours after LPS
Procedure: (§2) Male BALB/cJ mice (Iffa Credo, France), with average weight 30 g were randomly grouped (n=7 in testing group, 8 in positive control, 7 in negative control). Mice were administered intraperitoneally (i.p.) a single dose of 5 or 2.5 mg of test compound. Two hours after administration, 2 μg of bacterial lipopolysaccharide (LPS), dissolved in PBS in a volume of 60 μL, was intranasally administered to all experimental groups except the negative control group, which received the same volume (60 μL) of vehicle PBS. Animals were sacrificed approximately 24 hours after application of LPS in order to obtain bronchoalveolar lavage fluid (BALF), which was used to determine concentrations of IL-6 and TNF-α, absolute number of cells, and the percentage of neutrophils in BALF. Results are expressed as percentage of decrease of total cell number, relative number of neutrophils, and TNF-α, and IL-6 concentration in BALF of treated animals compared to positive control (LPS stimulated, but untreated animals).
(§3) Results are expressed as percentage of decrease of total cell number, relative number of neutrophils, and TNF-alpha and IL-6 concentration in BALF of treated animals compared to positive control (LPS stimulated, but untreated animals).

[3] = tested on: IL-6; experiment: Lung neutrophilia induced by bacterial lipopolysaccharide in male BALB/cJ mice: IL-6 in BALF; type: in vivo; conditions: 5 mg i.p.; 24 hours after LPS
Procedure: as §2, §3

[4] = tested on: neutrophils; experiment: Lung neutrophilia induced by bacterial lipopolysaccharide in male BALB/cJ mice: cells in BALF and lung tissue; type: in vivo; conditions: 5 mg i.p.; 24 hours after LPS
Procedure: as §2, §3
Besides accumulation of inflammatory cells in BALF, the extent and anatomic site of pulmonary inflammation induced by LPS was assessed 24 hours after PBS or LPS exposure. Accumulation of granulocytes and mononuclear cells in peribronchial (PB) and perivascular (PV) lung tissue areas and in alveolar spaces was monitored following sacrifice of the animals.

[5] = tested on: IL-2; experiment: Inhibition of IL-2 production by PHA-stimulated human PBMC in vitro; type: cell-based; conditions: Homo sapiens, 72 h, 3 days, read-out: Percentage of inhibition of IL-2 production
Procedure: (§4) Heparinized peripheral blood was obtained from healthy donors, and peripheral blood mononuclear cells (PBMC) were isolated by Histopaque 1077 (Sigma, USA) density centrifugation at 400×g for 30 minutes. Collected PBMC were centrifuged in plasma at 400×g for 10 min, resuspended and washed in RPMI 1640 (Institute of Immunology, Croatia) by centrifugation.
(§5) Peripheral blood mononuclear cells (PBMC), isolated as described above, were seeded in a 48-well plate at a concentration of 1×10^6 cells per well in the RPMI culture medium described above. Cells were stimulated with 10 μg/mL phytohaemagglutinin (PHA) (Sigma, USA) and incubated at 37° C., 5% CO2 in 90% humidity with tested compounds (10 and 50 μM) for 3 days. Cytokine concentrations were determined in supernatants by sandwich ELISA, using capture and detection antibodies (R&D, USA) according to the manufacturer's recommendations.
(§6) Inhibition (as percentage) was calculated using the following formula: % inhibition=(1−concentration of cytokines in sample/concentration of cytokines in positive control)×100.
(§7) The positive control refers to LPS-, PMA- or zymosan-stimulated samples that were not treated with test compounds.

[6] = tested on: granulocytes; experiment: Inhibition of degranulation of granulocytes (free neutrophil elastase activity); type: cell-based, human; conditions: Homo sapiens, Neutrophil, read-out: Percentage of inhibition of degranulation of granulocytes; for inhibition at 10 µM: compound 10 μM; for inhibition at 50 µM: compound 50 μM
Procedure: as §1
1×10^6 granulocytes, isolated as described above, were resuspended in RPMI-1640 medium (Institute of Immunology, Croatia), and were incubated with 10 or 50 μM of test compound together with cytochalasine B (5 μg/mL) for 2 h at 37° C. Degranulation then was induced by the addition of 0.1 μM fMLP (Sigma, USA) or 0.5 μM A23187 (Calbiochem, USA). The activity of free neutrophil elastase was determined with a chromogenic substrate specific for human neutrophil elastase, such as N-(methoxysuccinyl)-L-alanyl-L-alanyl-L-prolyl-L-valine 4-nitroanilide (Sigma Chemical Company, St Louis, Mo., USA). Elastase activity, as a marker of primary granules, was assessed in supernatant using a spectrophotometer at an absorbance of 405 nm.
Results are expressed as the percent of inhibition of degranulation in unstimulated cells, and in stimulated cells treated with fMLP or A23187.

[7] = tested on: IL-5; experiment: Inhibition of IL-5 production by PHA-stimulated human PBMC in vitro; type: cell-based; conditions: Homo sapiens, 72 h, 3 days, read-out: Percentage of inhibition of IL-5 production
Procedure: as §4, §5, §6, §7

[8] = tested on: LPS-induced septic shock; experiment: Septic shock induced by bacterial lipopolysaccharide in male BALB/cJ mice; type: in vivo; conditions: 24 hours
Procedure: Male BALB/cJ mice, (Iffa Credo, Lyon, France) 8 weeks old, weighing 25 g were randomly grouped (n=10 in testing groups and 15 in control group). Animals were primed with 4 μg bacterial lipopolysaccharide (LPS) that was dissolved in saline and administered i.pl. After 18-24 hours animals were challenged by an intravenous injection of 90 μg LPS in a volume of 0.2 mL. Animals were treated with the test compounds or the vehicle (control) intraperitoneally . . . or per os 30 min prior to each injection of LPS. Survival throughout 24 hours was monitored.

| Structure (SMILES) | Uptake (% azithromycin) [1] [% azithromycin] | Percentage of decrease of TNF-α concentration in BALF [2] [%] | Percentage of decrease of IL-6 concentration in BALF [3] [%] | % decrease of neutrophils in BALF [4] [%] | % decrease of total cell no. in BALF [4] [%] | further results |
| --- | --- | --- | --- | --- | --- | --- |
| CC[C@H]1OC(=O)[C@H](C)[C@@H](O[C@H]2C[C@@](C)(OC)[C@@H](OC(=O)CCN(CC)CC)[C@H](C)O2)[C@H](C)[C@@H](O[C@@H]2O[C@H](C)C[C@H](N(C)C)[C@H]2O)[C@](C)(OC)C[C@@H](C)NC(=O)[C@H](C)[C@@H](O)[C@]1(C)O [Example 3, 4″-O-(3-Diethylamino-Propionyl)-6-O-methyl-8a-aza-8a-homoerythromycin A] | 15 |  |  |  |  |  |
| CC[C@H]1OC(=O)[C@H](C)[C@@H](O[C@H]2C[C@@](C)(OC)[C@@H](OC(=O)CCN(CC)CC)[C@H](C)O2)[C@H](C)[C@@H](O[C@@H]2O[C@H](C)C[C@H](N(C)C)[C@H]2O)[C@](C)(OC)C[C@@H](C)C(=O)[C@H](C)[C@H]2NC(=O)O[C@@]21C [Example 9, 11,12-Carbamate-11,12-dideoxy-4″-O-(3-diethylamino-propionyl)-6-O-methyl-erythromycin A] | 412 |  |  |  |  |  |
| CC[C@H]1OC(=O)[C@H](C)[C@@H](O[C@H]2C[C@@](C)(OC)[C@@H](OC(=O)CCN(C)C)[C@H](C)O2)[C@H](C)[C@@H](O[C@@H]2O[C@H](C)C[C@H](N(C)C)[C@H]2O)[C@](C)(OC)C[C@@H](C)C(=O)N[C@H](C)[C@@H](O)[C@]1(C)O [Example 12, 4″-O-(3-dimethylamino-propionyl)-6-O-methyl-9a-aza-9a-homoerythromycin A] |  | 87 | 45 | 46 | 88 |  |
| CC[C@H]1OC(=O)[C@H](C)[C@@H](O[C@H]2C[C@@](C)(OC)[C@@H](OC(=O)CCN(CC)CC)[C@H](C)O2)[C@H](C)[C@@H](O[C@@H]2O[C@H](C)C[C@H](N(C)C)[C@H]2O)[C@](C)(O)C[C@@H](C)CN(C)[C@H](C)[C@@H](O)[C@]1(C)O [Example 48, 4″-O-(3-diethylamino-propionyl)-azithromycin] | 125 | 85 | 9 | 66 | 79 |  |
| CC[C@H]1OC(=O)[C@H](C)C(O[C@H]2C[C@@](C)(OC)[C@@H](OC(=O)CCN(CC)CC)[C@H](C)O2)[C@H](C)[C@@H](O[C@@H]2O[C@H](C)C[C@H](N(C)C)[C@H]2O)[C@](C)(OC)C[C@@H](C)C(=O)[C@H](C)[C@H](O)[C@]1(C)O (stereo partly shown) [Example 49, 4″-O-(3-Diethylamino-propionyl)-6-O-methylerithromycin A] | >600 |  |  |  |  | inhibition at 10 µM [5]: 51%; inhibition at 50 µM [5]: 100%; inhibition at 10 µM ([6]; A23187 0.5 μM): 10%; inhibition at 50 µM ([6]; A23187 0.5 μM): 51%; inhibition at 10 µM ([6]; fMLP 0.1 μM): 47%; inhibition at 50 µM ([6]; fMLP 0.1 μM): 72%; inhibition at 10 µM [7]: 59%; inhibition at 50 µM [7]: 81% |
| CC[C@H]1OC(=O)[C@H](C)[C@@H](O[C@H]2C[C@@](C)(OC)[C@@H](OC(=O)CCN(CC)CC)[C@H](C)O2)[C@H](C)[C@@H](O[C@@H]2O[C@H](C)C[C@H](NC)[C@H]2O)[C@](C)(OC)C[C@@H](C)C(=O)N[C@H](C)[C@@H](O)[C@]1(C)O [Example 54, 3′-N-Demethyl-4″-O-(3-diethylaminopropionyl)-6-O-methyl-9a-aza-9a-homoerythromycin A] |  | 100 | 100 | 70 | 90 |  |
| CC[C@H]1OC(=O)[C@H](C)[C@@H](O[C@H]2C[C@@](C)(OC)[C@@H](O)[C@H](C)O2)[C@H](C)[C@@H](O[C@@H]2O[C@H](C)C[C@H](N(C)C)[C@H]2O)[C@](C)(O)C[C@@H](C)CN(C)[C@H](C)[C@@H](O)[C@]1(C)O [azithromycin, reference compound] | 100 | 66 | 72 | 37 | 77 | Survival (%) ([8]; 1 mg/kg p.o.): 30%; Survival (%) ([8]; 10 mg/kg p.o.): 60%; Survival (%) ([8]; 100 mg/kg p.o.): 70%; inhibition at 50 µM ([6]; A23187 0.5 μM): 15%; inhibition at 50 µM ([6]; fMLP 0.1 μM): 36%; intracellular to extracellular concentration ratio (I/E) [1]: 164±10 |
| CC[C@H]1OC(=O)[C@H](C)[C@@H](O[C@H]2C[C@@](C)(OC)[C@@H](O)[C@H](C)O2)[C@H](C)[C@@H](O[C@@H]2O[C@H](C)C[C@H](N(C)C)[C@H]2O)[C@](C)(OC)C[C@@H](C)C(=O)[C@H](C)[C@@H](O)[C@]1(C)O [clarithromycin, reference compound] |  | 78 | 60 | 36 | 77 | inhibition at 10 µM [5]: 0%; inhibition at 50 µM [5]: 3%; inhibition at 10 µM [7]: 13%; inhibition at 50 µM [7]: 47% |
